Marks after values point to notes of the source that are not given here.
Experiments:
[1] = test system: patients with a sitting diastolic blood pressure (SDBP) of 95-109 mm Hg; experiment: Clinical study, factorial design, randomized double-blind placebo-controlled, 8 weeks; format: in vivo, human; conditions: for Therapeutic response rate, study participants with SDBP < 90 mm Hg / Change in SDBP / Change in SSBP: 8 weeks; for Change in SDBP / Change in SSBP: vs baseline, response surface analysis
Experimental: A multi-center, randomized, double-blind, placebo-controlled, parallel groups, factorial design trial was conducted. After a 14-day (±3 days) screening/washout period during which patients were washed from ongoing antihypertensive therapy, eligible patients with a sitting diastolic blood pressure (SDBP) of 95-109 mm Hg, entered the 28 day (±3 days) single-blind placebo run-in period during which they received placebo once-daily. Patients who were not responsive to this treatment and whose SDBP was 95-109 mm Hg, were randomized into an eight-week double-blind treatment phase. Baseline measurements were taken on Study Day 0 with post-therapy assessments during the double blind period scheduled on Study Days 14, 28, 42, and 56. Laboratory tests were conducted prior to the beginning of the screening period and on study Day 0 as well as at the end of the study.
The number of patients screened was greater than 800; 798 entered the 4-week single-blind placebo period, and 663 eligible patients were randomized into the 8-week double-blind treatment. The number in parenthesis represents the number of patients in each group available for efficacy evaluation.
The patients were randomized into one of the above noted 12 treatment groups. Tablets of lercanidipine (5 and 10 mg) and enalapril (2.5 mg) were encapsulated in the appropriate doses, in order to assure double-blind conditions. All tablets were of commercial origin except for the 5 mg lercanidipine, which were prepared in accordance with Table 3.
Patients were instructed to take one capsule of the study medication once daily 15 minutes before breakfast, between 6 and 10 am. All medications were to be withheld on mornings of clinic visits until after blood pressure evaluations at 22-26 hours following the previous day's dose of study medication.
1. Trough (Minimum) (24±2 hours post-dose) sitting diastolic blood pressure (SDBP)
2. Trough (24±2 hours post-dose) sitting systolic blood pressure (SSBP)
4. Percent of patients with SDBP<90 mm Hg
The primary efficacy variable was the change from baseline to mean trough SDBP after 8 weeks of double-blind treatment. The analysis was performed in an “intent-to-treat” fashion, including all randomized patients who had received at least one dose of double-blind treatment, and had at least one post-baseline SDBP measurement 18-48 hours post-dose. In case of premature withdrawal from the study the last observation carried forward (LOCF) algorithm was applied (“end point analysis”).
The overall treatment comparison was performed using an analysis of covariance (ANCOVA) with treatment and centers as main effects and baseline value as covariate.
An additional ANOVA was performed using the factorial model in order to test for the interaction of lercanidipine dose and enalapril dose at each time-point.
The number of patients who discontinued the study because of an adverse event is reported in parenthesis.

isolated rat aorta = conditions: in vitro; even after the drug has been removed for 6 hours; cited from earlier work
[2] = enalapril 5 mg once daily, 55 patients randomized
[3] = enalapril 10 mg once daily, 55 patients randomized
[4] = lercanidipine 5 mg once daily, 54 patients randomized
[5] = lercanidipine 10 mg once daily, 57 patients randomized
[6] = lercanidipine 20 mg once daily, 54 patients randomized

## CCOC(=O)[C@H](CCc1ccccc1)N[C@@H](C)C(=O)N1CCC[C@H]1C(=O)O [enalapril, (S)-1-[N-1-(ethoxycarbonyl)-3-phenylpropyl]-L-alanyl-L-proline]
[1]; enalapril 5 mg once daily
  Therapeutic response rate, study participants with SDBP < 90 mm Hg: 28%
  Change in SDBP: −7.7
[1]; enalapril 5 mg once daily, confidence interval in parentheses
  Change in SSBP: −9.6 (8.1-11.2)
[1]; [2]
  number of patients who discontinued the study because of an adverse event: 1
  number of patients with any adverse events related to study drug: 9
[1]; enalapril 10 mg once daily
  Therapeutic response rate, study participants with SDBP < 90 mm Hg: 43%
  Change in SDBP: −8.8
[1]; enalapril 10 mg once daily, confidence interval in parentheses
  Change in SSBP: −11.1 (9.1-13.2)
[1]; [3]
  number of patients who discontinued the study because of an adverse event: 1
  number of patients with any adverse events related to study drug: 12

## COC(=O)C1=C(C)NC(C)=C(C(=O)OC(C)(C)CN(C)CCC(c2ccccc2)c2ccccc2)C1c1cccc([N+](=O)[O-])c1 (stereo not shown) [lercanidipine, methyl 1,1,N-trimethyl-N-(3,3-diphenylpropyl)-2-aminoethyl 1,4-dihydro-2,6-dimethyl-4-(3-nitrophenyl)pyridine-3,5-dicarboxylate]
[1]; lercanidipine 5 mg once daily
  Therapeutic response rate, study participants with SDBP < 90 mm Hg: 32%
[1]; lercanidipine 5 mg once daily, confidence interval in parentheses
  Change in SSBP: −9.5 (7.8-11.1)
[1]; [4]
  number of patients who discontinued the study because of an adverse event: 3
  number of patients with any adverse events related to study drug: 8
[1]; lercanidipine 10 mg once daily
  Therapeutic response rate, study participants with SDBP < 90 mm Hg: 40%
  Change in SDBP: −8.2
[1]; lercanidipine 10 mg once daily, confidence interval in parentheses
  Change in SSBP: −10.8 (9.1-12.4)
[1]; [5]
  number of patients who discontinued the study because of an adverse event: 1
  number of patients with any adverse events related to study drug: 10
[1]; lercanidipine 20 mg once daily
  Therapeutic response rate, study participants with SDBP < 90 mm Hg: 59%*
  Change in SDBP: −9.9*
[1]; lercanidipine 20 mg once daily, in mm Hg
  Change in SSBP: −13.4* (11.1-15.6)
[1]; [6]
  number of patients who discontinued the study because of an adverse event: 3
  number of patients with any adverse events related to study drug: 10
Isolated rat aorta
  isolated rat aorta response to high K+: attenuated

Source: patent publication US20030180355A1, “Combination therapy for hypertension” (priority 2001, published 2003)
